For the test, the target named is T1, mPGES-1 (Homo sapiens, UniProt O14684).
T1 construct: made in house; host or cells: E. coli (membrane fraction)
T1 sequence (O14684 1-152): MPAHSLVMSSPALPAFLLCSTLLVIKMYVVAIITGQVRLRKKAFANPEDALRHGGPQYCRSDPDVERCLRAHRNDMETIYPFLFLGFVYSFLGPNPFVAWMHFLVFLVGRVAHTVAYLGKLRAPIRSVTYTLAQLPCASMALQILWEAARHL
The test is described as follows: mPGES-1 assay: conversion of PGH2 to PGE2, HPLC analysis. It is filed as biochemical. To be noted: mPGES-1 expressed in E. coli; 25 min preincubation with inhibitor at room temperature; PGH2 substrate 60 seconds; read-out: IC50 values (inhibition of mPGES-1). The method, then:
In the assay mPGES-1 catalyses the reaction where the substrate PGH2 is converted to PGE2. mPGES-1 is expressed in E. coli and the membrane fraction is dissolved in 20 mM NaPi-buffer pH 8.0 and stored at −80° C. In the assay mPGES-1 is dissolved in 0.1M KPi-buffer pH 7.35 with 2.5 mM glutathione. The stop solution consists of H2O/MeCN (7/3), containing FeCl2 (25 mM) and HCl (0.15 M). The assay is performed at room temperature in 96-well plates. Analysis of the amount of PGE2 is performed with reversed phase HPLC (Waters 2795 equipped with a 3.9×150 mm C18 column). The mobile phase consists of H2O/MeCN (7/3), containing TFA (0.056%), and absorbance is measured at 195 nm with a Waters 2487 UV-detector.
The following is added chronologically to each well: • 1. 100 μL mPGES-1 in KPi-buffer with glutathione. Total protein concentration: 0.02 mg/mL. • 2. 1 μL inhibitor in DMSO. Incubation of the plate at room temperature for 25 minutes. • 3. 4 μL of a 0.25 mM PGH2 solution. Incubation of the plate at room temperature for 60 seconds. • 4. 100 μL stop solution. • 180 μL per sample is analyzed with HPLC.
As for `CC(C)Oc1ccc(-n2c(C(=O)O)cc3cc(Oc4cccc(OC(C)C)c4)ccc32)cc1` [Example 1, 5-(3-Isopropoxyphenoxy)-1-(4-isopropoxyphenyl)indole-2-carboxylic acid], the IC50 – broadly, the midpoint of a concentration-inhibition curve – worked out at 430 nM.

For `CC(C)Oc1ccc(-n2c(C(=O)O)cc3cc(Oc4ccc(Cl)cc4)ccc32)cc1` [Example 10, 5-(4-Chlorophenoxy)-1-(4-isopropoxyphenyl)indole-2-carboxylic acid], the IC50 is 240 nM.

Turning to `CC(C)Oc1ccc(-n2c(C(=O)O)cc3cc(Oc4cnc5ccccc5c4)ccc32)cc1` [Example 13, 1-(4-Isopropoxyphenyl)-5-(quinolin-3-yloxy)indole-2-carboxylic acid], the IC50 turned out to be 3700 nM.

Consider `O=C(O)c1cc2cc(Oc3ccc(C4CCCCC4)cc3)ccc2n1-c1ccc(OC2CC2)cc1` [Example 21, 5-(4-Cyclohexylphenoxy)-1-(4-cyclopropoxyphenyl)indole-2-carboxylic acid], for which the IC50 stood at 75 nM.

Consider `O=C(c1ccc(Cl)cc1)c1ccc2c(c1)c(Cl)c(C(=O)O)n2-c1ccc(OC2CCCC2)cc1` [Example 40, 3-Chloro-5-(4-chlorobenzoyl)-1-(4-cyclopentyloxyphenyl)indole-2-carboxylic acid], for which the IC50 was 610 nM.
